The target of one data set is T1, (H^+ +K^+) ATPase (Sus scrofa, UniProt P19156).
T1 construct: prepared from fresh pieces of the fundus ventriculi of hog stomach; from tissue; host or cells: hog stomach, fundus ventriculi (fresh pieces), prepared by the method of Saccomani et al., J. Biol. Chem. 1976
The data set is described as follows: Inhibitory effect on (H^+ +K^+) ATPase. In kind it is biochemical, hog. Particulars: in vitro; for inhibition at 1000 µM: at 1 × 10^-3 M, read-out: Degree of inhibition, Inhibitory effect on (H^+ + K^+) ATPase. The procedure: The inhibitory effect of the present compounds [I] on (H^+ +K^+) ATPase was tested by adding each test compound to a solution containing 300-500 μg, on a protein basis, of the enzyme, incubating this reaction mixture at 35°-37° C. for 5-30 minutes, and then determining the residual activity of (H^+ +K^+) ATPase present in the reaction mixture. The test compounds were dissolved in methanol or ethanol in advance and added to the reaction system in such an amount as to give a concentration of 1×10^-3 M. The (H^+ +K^+) ATPase used in this test was prepared from fresh pieces of the fundus ventriculi of hog stomach according to the method of Saccomani et al. (The Journal of Biological Chemistry, Vol. 251, No. 23, p. 7690, 1976). The residual activity of (H^+ +K^+) ATPase was determined by mixing magnesium chloride and potassium chloride with the incubated reaction mixture, adding adenosine triphosphate thereto, incubating this assay mixture 37° C. for 5-15 minutes to effect an enzymic reaction, and colorimetrically determining the liberated inorganic phosphate by use of an ammonium molybdate reagent. The initial concentrations of magnesium chloride, potassium chloride and adenosine triphosphate were adjusted to 2 mM, 20 mM and 2 mM, respectively. Colorimetric determinations were made at a wavelength of 360-400 nm. As a control experiment, the residual activity of (H^+ +K^+) ATPase was determined by repeating the above-described procedure without adding any test compound to the reaction system. In this table, the inhibitory effect is indicated by the degree of inhibition which was obtained by calculating the difference between the measured value obtained in the control experiment and the measured value resulting from the addition of each test compound and expressing this difference as a percentage of the measured value obtained in the control experiment. For purposes of comparison, the inhibitory effect of Omeprazole and Compounds α and β on (H^+ +K^+) ATPase was tested in the same manner as described above and the results thus obtained are also shown in Table 2.

Another data set relates to gastric acid secretion. The data set is described as follows: Inhibitory effect on gastric acid secretion (pylorus ligation). Particulars: for ED50: Rattus norvegicus, po, rats, total acidity of gastric juice 4 hours after pylorus ligation; for inhibitory effect on gastric acid secretion (in words): in vivo. In kind it is in vivo, male Wistar rats. The procedure: The inhibitory effect of the present compounds [I] on gastric acid secretion was tested by using male Wistar rats, weighing about 200 g, in groups of five. To these rats which had been fasted overnight, the test compounds were orally administered in a series of appropriately selected doses ranging from 1 to 100 mg/kg. Then, the pyloric end of the stomach was ligated. After the lapse of 4 hours, the total acidity of gastric juice of each rat was measured. More specifically, the test compounds were suspended in a 0.5% aqueous solution of carboxymethyl cellulose and administered to the rats 30 minutes before ligation. Gastric juice was collected by sacrificing and laparotomizing each rat. The total acidity of gastric juice was determined by titrating the gastric juice with a 0.1 N aqueous solution of sodium hydroxide until a pH of 7.0 was reached. As a control experiment, the total acidity of gastric juice of an untreated group was determined in the same manner as described above. The inhibitory effect of the test compounds on gastric acid secretion was evaluated on the basis of the dose (in mg/kg) required to inhibit gastric acid secretion, i.e. the total acidity of gastric juice, by 50% (hereinafter referred to as ED50). The ED50 value of each test compound was determined by calculating the difference in total acidity between the untreated group and each treated group, dividing the difference by the total acidity of the untreated group to obtain the degree of inhibition, and constructing a dose-response curve on the basis of the data thus obtained. For purposes of comparison, the ED50 values of Omeprazole and Compounds α and β were determined in the same manner as described above and are also shown in Table 3.

The subject of a further data set is Aspirin ulcer. Put plainly: Inhibitory effect on aspirin ulcer. Particulars: Rattus norvegicus; oral, rats; 30 minutes before ligation; aspirin 150 mg/kg; 7 hours; read-out: Inhibitory effect on Aspirin ulcer, ID50. Type of data set: in vivo, male Wistar rats. The procedure:
(§1) The inhibitory effects of the present compounds [I] on various experimental ulcers were tested by using male Wistar rats, weighing about 200 g, in groups of six and determining the respective ulceration indexes for 5 types of experimental ulcers. In each test, the test compounds were suspended in a 0.5% aqueous solution of carboxymethyl cellulose and administered orally in a series of appropriately selected doses ranging from 1 to 100 mg/kg. The test procedures for 5 types of experimental ulcers were as follows:
In rats which had been fasted for 24 hours, the pyloric end of the stomach was ligated. After 5 minutes, aspirin was orally administered thereto in a dose of 150 mg/kg. Seven hours after ligation, each rat was sacrificed and the length of the ulcer(s) formed in the glandular stomach part was measured. The ulceration index was calculated on the basis of the data thus obtained. The test compounds were administered 30 minutes before ligation.
(§2) The pharmacological effect of the test compounds on each of the aforesaid experimental ulcers was evaluated on the basis of the dose (in mg/kg) required to inhibit the formation of ulcers by 50% (hereinafter referred to as ID50). The ID50 value of each test compound was determined by calculating the difference in ulceration index between the untreated group and each treated group, dividing the difference by the ulceration index of the untreated group to obtain the degree of inhibition, and constructing a dose-response curve on the basis of the data thus obtained. For purposes of comparison, the ID50 values of Omeprazole and Compounds α and β were determined in the same manner as described above and are also shown in Table 4.

Another data set has as its system Indomethacin ulcer. The data set is described as follows: Inhibitory effect on indomethacin ulcer. Type of data set: in vivo, male Wistar rats. The settings on record: Rattus norvegicus; oral, rats; 30 minutes before indomethacin 25 mg/kg s.c.; 7 hours; read-out: Inhibitory effect on Indomethacin ulcer, ID50. The protocol: as §1
To rats which had been fasted for 24 hours, indomethacin was subcutaneously administered in a dose of 25 mg/kg. After 7 hours, each rat was sacrificed and the length of the ulcer(s) formed in the glandular stomach part was measured. The ulceration index was calculated on the basis of the data thus obtained. The test compounds were administered 30 minutes before administration of indomethacin.
as §2

A short description of data set [1]: Acute toxicity test (LD50). The settings on record: rat, in vivo, rats. The procedure: The acute toxicity (LD50) of several typical examples of the present compounds [I] (i.e., the compounds of Examples 1, 8, 13, 19, 24, 26 and 33) was tested with 5-weeks-old male Wistar rats. […] When Omeprazole was administered orally, its LD50 value was greater than 4000 mg/kg.

[2] abbreviates: ip, intraperitoneal administration.

As usually defined, the inhibition is how much of the control response was suppressed. The term LD50 denotes the dose at which mortality reaches 50%.

Structures are written as SMILES.

T1 sequence (P19156 2-1034 limits assumed): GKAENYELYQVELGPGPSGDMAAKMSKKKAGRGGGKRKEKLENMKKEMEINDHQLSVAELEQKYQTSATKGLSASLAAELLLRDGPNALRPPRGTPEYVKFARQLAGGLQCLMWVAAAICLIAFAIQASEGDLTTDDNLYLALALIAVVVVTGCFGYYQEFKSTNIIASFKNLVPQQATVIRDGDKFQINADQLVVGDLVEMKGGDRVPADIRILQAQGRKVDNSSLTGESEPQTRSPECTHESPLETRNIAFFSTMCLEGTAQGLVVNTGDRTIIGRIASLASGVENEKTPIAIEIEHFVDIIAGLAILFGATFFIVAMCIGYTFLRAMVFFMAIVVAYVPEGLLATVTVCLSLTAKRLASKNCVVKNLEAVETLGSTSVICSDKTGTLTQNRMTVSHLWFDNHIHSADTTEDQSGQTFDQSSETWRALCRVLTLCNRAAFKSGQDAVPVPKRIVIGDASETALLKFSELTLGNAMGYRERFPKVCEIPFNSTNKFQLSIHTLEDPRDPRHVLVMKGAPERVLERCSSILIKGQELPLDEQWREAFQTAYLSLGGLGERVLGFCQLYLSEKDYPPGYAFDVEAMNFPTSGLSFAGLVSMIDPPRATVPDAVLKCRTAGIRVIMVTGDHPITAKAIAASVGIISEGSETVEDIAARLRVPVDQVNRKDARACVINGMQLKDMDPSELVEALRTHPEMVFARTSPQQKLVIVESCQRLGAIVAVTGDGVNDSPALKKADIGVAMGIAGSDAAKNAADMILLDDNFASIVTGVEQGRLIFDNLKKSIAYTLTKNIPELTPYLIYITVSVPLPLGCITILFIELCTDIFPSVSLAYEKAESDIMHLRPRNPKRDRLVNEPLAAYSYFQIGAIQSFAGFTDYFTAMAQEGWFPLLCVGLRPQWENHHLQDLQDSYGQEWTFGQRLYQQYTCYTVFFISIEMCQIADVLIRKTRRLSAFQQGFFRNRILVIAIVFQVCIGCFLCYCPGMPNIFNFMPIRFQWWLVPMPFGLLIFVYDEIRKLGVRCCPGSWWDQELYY
T1 sequence (P18434 whole entry partner): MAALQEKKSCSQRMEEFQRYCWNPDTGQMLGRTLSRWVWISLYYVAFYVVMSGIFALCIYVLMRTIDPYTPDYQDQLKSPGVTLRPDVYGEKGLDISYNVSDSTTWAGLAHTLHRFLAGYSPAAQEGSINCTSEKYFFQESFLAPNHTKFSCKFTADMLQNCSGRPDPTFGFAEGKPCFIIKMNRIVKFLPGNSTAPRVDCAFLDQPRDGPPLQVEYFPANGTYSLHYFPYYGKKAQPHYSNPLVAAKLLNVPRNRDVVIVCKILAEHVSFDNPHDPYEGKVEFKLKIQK

As to `COc1c(C)cnc(C[S+]([O-])c2nc3nc(OCC(F)(F)F)ccc3[nH]2)c1C` (centres unmarked) [Example 26, 2-[2-(3,5-Dimethyl-4-methoxy)pyridylmethylsulfinyl]-5-(2,2,2-trifluoroethoxy)imidazo[4,5-b]pyridine], on (H^+ +K^+) ATPase, the inhibition at 1000 µM came to 100%. Further, the ED50 worked out at 15 mg/kg in the data set with gastric acid secretion, 9.5 mg/kg with Aspirin ulcer and 15.8 mg/kg in the data set with Indomethacin ulcer. In addition, the LD50 in data set [1] (setting [2]) was more than 500 mg/kg; in data set [1] (oral administration) it was more than 4000 mg/kg.

Regarding `CCCCCCCOc1ccc2[nH]c([S+]([O-])Cc3ncc(C)cc3C)nc2n1` (centres unmarked) [Example 33, 2-[2-(3,5-Dimethyl)pyridylmethylsulfinyl]-5-n-heptyloxyimidazo[4,5-b]pyridine], the inhibition at 1000 µM at (H^+ +K^+) ATPase was determined as 95.4%. The figures for the ED50 with gastric acid secretion, with Aspirin ulcer and in the data set with Indomethacin ulcer were 17 mg/kg, 12.6 mg/kg and 23.2 mg/kg, respectively. For the same compound, the 50% lethal dose (LD50) in data set [1] (setting [2]) was more than 500 mg/kg; in data set [1] (oral administration) it was more than 4000 mg/kg.

For the compound `CCOc1ccc2[nH]c([S+]([O-])Cc3ncc(C)c(C)c3C)nc2n1` (centres unmarked) [Example 8, 2-[2-(3,4,5-Trimethyl)pyridylmethylsulfinyl]-5-ethoxyimidazo[4,5-b]pyridine], at (H^+ +K^+) ATPase, the inhibition at 1000 µM amounted to 100%. For the same compound, the ED50 with gastric acid secretion is 12 mg/kg; in the data set with Aspirin ulcer, 10.7 mg/kg; in the data set with Indomethacin ulcer it was 18.8 mg/kg. In addition, the median lethal dose (LD50) is more than 500 mg/kg in data set [1] (setting [2]) and more than 4000 mg/kg in data set [1] (oral administration).

As for `COc1cc(C[S+]([O-])c2nc3nc(OCC4CC4)ccc3[nH]2)ncc1C` (centres unmarked) [Example 13, 2-[2-(4-Methoxy-5-methyl)pyridylmethylsulfinyl]-5-cyclopropylmethyloxyimidazo[4,5-b]pyridine], the inhibition at 1000 µM at (H^+ +K^+) ATPase came to 87.4%. The results for the ED50 in the data set on gastric acid secretion, with Aspirin ulcer and in the data set with Indomethacin ulcer were 18 mg/kg, 14.5 mg/kg and 21.9 mg/kg, respectively. Besides, the figures for the 50% lethal dose (LD50) in data set [1] (setting [2]) and in data set [1] (oral administration) were more than 500 mg/kg and more than 4000 mg/kg, respectively.

As for `COc1c(C)cnc(C[S+]([O-])c2nc3nc(OCC4CC4)ccc3[nH]2)c1C` (centres unmarked) [Example 24, 2-[2-(3,5-Dimethyl-4-methoxy)pyridylmethylsulfinyl]-5-cyclopropylmethyloxyimidazo[4,5-b]pyridine], on (H^+ +K^+) ATPase, the inhibition at 1000 µM was determined as 100%. Besides, the results for the ED50 with gastric acid secretion, in the data set with Aspirin ulcer and in the data set with Indomethacin ulcer were 9 mg/kg, 5.4 mg/kg and 13.1 mg/kg, respectively. In addition, the median lethal dose (LD50) in data set [1] (setting [2]) was more than 500 mg/kg; in data set [1] (oral administration) it was more than 4000 mg/kg.

With `COc1ccc2[nH]c([S+]([O-])Cc3ncc(C)cc3C)nc2n1` (centres unmarked) [Example 1, 2-[2-(3,5-Dimethyl)pyridylmethylsulfinyl]-5-methoxyimidazo[4,5-b]pyridine], at (H^+ +K^+) ATPase, the inhibition at 1000 µM is 100%. The ED50 in the data set with gastric acid secretion stood at 13 mg/kg; in the data set on Aspirin ulcer, 6.3 mg/kg; in the data set with Indomethacin ulcer, 12.9 mg/kg. In addition, the results for the median lethal dose (LD50) in data set [1] (setting [2]) and in data set [1] (oral administration) were more than 500 mg/kg and more than 4000 mg/kg, respectively.

As for `COc1ccc2[nH]c([S+]([O-])Cc3ncc(C)c(OC)c3C)nc2c1` (centres unmarked) [Omeprazole, reference compound], the inhibition at 1000 µM on (H^+ +K^+) ATPase stood at 38.7%. Besides, the ED50 with gastric acid secretion was found to be 35 mg/kg; in the data set with Aspirin ulcer, 17.2 mg/kg; in the data set on Indomethacin ulcer, 24.7 mg/kg. Further, the LD50 in data set [1] (oral administration) is more than 4000 mg/kg.

`COc1c(C)cnc(C[S+]([O-])c2nc3ncc(C)cc3[nH]2)c1C` (stereo not drawn) [Compound β, 2-[2-(3,5-dimethyl-4-methoxy)pyridylmethylsulfinyl]-6-methylimidazo[4,5-b]-pyridine, reference compound]: at (H^+ +K^+) ATPase, the inhibition at 1000 µM came out at 100% and the “inhibitory effect on (H^+ +K^+) ATPase (in words)” value is “marked inhibitor effect”. Further, in the data set with gastric acid secretion, the ED50 is 41 mg/kg and the “inhibitory effect on gastric acid secretion (in words)” value is recorded as “not satisfactorily reflected in the in vivo tests”. The ED50 in the data set with Aspirin ulcer came out at 23.8 mg/kg. Besides, in the data set on Indomethacin ulcer, the ED50 stood at 29.5 mg/kg.

Regarding `COc1c(C)cnc(C[S+]([O-])c2nc3ncc(Br)cc3[nH]2)c1C` (stereo not drawn) [Compound α, 2-[2-(3,5-dimethyl-4-methoxy)pyridylmethylsulfinyl]-6-bromoimidazo[4,5-b]pyridine, reference compound], at (H^+ +K^+) ATPase, the inhibition at 1000 µM is 100% and the “inhibitory effect on (H^+ +K^+) ATPase (in words)” value was “marked inhibitor effect”. For the same compound, in the data set with gastric acid secretion, the ED50 worked out at 73 mg/kg and the “inhibitory effect on gastric acid secretion (in words)” value is reported as “not satisfactorily reflected in the in vivo tests”. Also, the ED50 with Aspirin ulcer was not below 100 mg/kg. For the same compound, in the data set on Indomethacin ulcer, the ED50 was 78.4 mg/kg.

Values taken from US4808596A, “Imidazo[4,5-b]pyridine compounds and pharmaceutical compositions containing same” (Tokyo Tanabe Company, Ltd., priority 1986, dated 1989).
